Data on 14 compounds can be found in ChEMBL document CHEMBL1201862, “PubChem BioAssay data set” (2004).

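48-hour exposure; five concentrations; linearly interpolated endpoints. Here, GI50 denotes the concentration required for 50% inhibition of growth.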 Activity calls are given as the source filed them. No stated cut-off is given here; in the data, active = GI50 up to about 1.1 µM and inactive = higher. Bounds are passed on as bounds.

Test in all cases: inhibition of tumour cell growth, NCI panel, 48 h
Assay [1] concerns OVCAR-3.
Assay [2] deals with SK-MEL-2.
Assay [3] relates to COLO 205.
The test system of assay [4] is HL-60.
The test system of assay [5] is LOX IMVI.
The test system of assay [6] is U-251.
For assay [7], the system named is KM12.
The test system of assay [8] is HCC 2998.
Assay [9] has as its system SNB-19.
The test system of assay [10] is MOLT-4.
Assay [11] concerns HT-29.
For assay [12], the system named is 786-0.
For assay [13], the system named is NCI-H23.
Assay [14] concerns K562.
In assay [15] the test system is SF-539.

With `NNC(=O)C(=O)N/N=C(\CCCC(=O)Nc1ccc(Cl)cc1)CC(=O)c1ccc(F)cc1`, the GI50 in assay [1] is > 100 µM (inactive); in assay [2], 15.7 µM (inactive); in assay [3], > 100 µM (inactive); in [4], > 100 µM (inactive); in [5], 13.9 µM (inactive); in [6] it was > 100 µM (inactive). For the same compound, the GI50 in [7] was > 100 µM (inactive); in assay [8] it was > 100 µM (inactive); in [9], > 100 µM (inactive); in [10], > 100 µM (inactive); in assay [11], 83.2 µM (inactive); in assay [12], > 100 µM (inactive). In addition, the GI50 in [13] is > 100 µM (inactive).

Turning to `CCOC(=O)c1cc2c(nc1N)-c1ncccc1CC2`, the GI50 in [1] is 18.5 µM (inactive); in assay [2] it was > 100 µM (inactive); in assay [3], 31.5 µM (inactive); in assay [4], 28.1 µM (inactive); in assay [5], 65.6 µM (inactive); in assay [6] it was 43.8 µM (inactive). In addition, the GI50 is 49.9 µM (inactive) in assay [7]; > 100 µM (inactive) in [8]; 59.7 µM (inactive) in assay [9]; 47.6 µM (inactive) in assay [10]; 16.4 µM (inactive) in assay [11]; 82.2 µM (inactive) in assay [12]. Besides, the GI50 in assay [13] was 37.2 µM (inactive); in assay [14] it was 27 µM (inactive); in assay [15], > 100 µM (inactive).

In the case of `O=C(c1cc2ccccc2o1)N(Cc1ccccc1)c1ccccc1`, the GI50 in assay [1] is 20.3 µM (inactive); in assay [2] it was 33.8 µM (inactive); in assay [3], 20.4 µM (inactive); in assay [4] it was 16.4 µM (inactive); in [5], 21 µM (inactive); in assay [7], 20.6 µM (inactive). Further, the GI50 in assay [8] is 23.4 µM (inactive); in assay [9] it was 35.9 µM (inactive); in [10], 16.6 µM (inactive); in assay [11] it was 22.8 µM (inactive); in [12] it was 20.2 µM (inactive); in assay [13], 27 µM (inactive). The GI50 in [14] is 15 µM (inactive).

With `CCOP(=O)(C/C(O)=C1\C(=O)C(CCCCNC(=O)OC(C)(C)C)N(Cc2ccccc2)C1=O)OCC` (stereo not drawn), the GI50 in assay [1] is > 100 µM (inactive); in assay [2], > 100 µM (inactive); in assay [3], > 100 µM (inactive); in assay [4], 63.7 µM (inactive); in [5], > 100 µM (inactive); in assay [6] it was > 100 µM (inactive). The GI50 in assay [7] was > 100 µM (inactive); in assay [8], > 100 µM (inactive); in assay [10] it was 78.7 µM (inactive); in [11] it was > 100 µM (inactive); in assay [12], > 100 µM (inactive); in [13], > 100 µM (inactive). Further, the GI50 in [14] and in assay [15] was > 100 µM (inactive) each time.

For `NC(=O)N/N=C(\Cc1nc2ccc(C(=O)c3ccccc3)cc2nc1O)C(=O)Nc1ccc(Br)cc1`, the GI50 in [1], in [2], in assay [4], in assay [5], in [6] and in [7] was > 100 µM (inactive) throughout. Further, the GI50 in [8], in assay [9], in assay [10], in [11], in [12] and in assay [13] was > 100 µM (inactive) each time. The GI50 in assay [14] and in [15] was > 100 µM (inactive) throughout.

Turning to `CCc1cccc(C)c1NC(=O)CCc1nnc(S)[nH]1`, the GI50 in [1], in assay [2], in [4], in assay [5], in assay [6] and in assay [7] was > 100 µM (inactive) each time. Further, the GI50 in assay [8], in assay [9], in [10], in [11], in assay [12] and in [13] was > 100 µM (inactive) each time. In addition, the GI50 in assay [14] and in [15] was > 100 µM (inactive) in each case.

As for `COc1cccc(NC(=S)Nn2c(C)nc3ccccc3c2=O)c1`, the GI50 in [2], in assay [3], in assay [4], in assay [5], in assay [6] and in [7] was > 100 µM (inactive) each time. Besides, the GI50 in assay [10], in assay [11], in [12], in assay [13], in assay [14] and in assay [15] was > 100 µM (inactive) each time.

`Cc1c(-c2coc(-c3ccccc3)n2)c(=O)n(-c2ccccc2)n1C`: the GI50 was > 100 µM (inactive) in assay [1]; > 100 µM (inactive) in [2]; 78.3 µM (inactive) in assay [3]; 76.7 µM (inactive) in [4]; > 100 µM (inactive) in assay [5]; > 100 µM (inactive) in [6]. Further, the GI50 in assay [7] was > 100 µM (inactive); in assay [8], 0.1 µM (active); in assay [9], > 100 µM (inactive); in assay [10], 25.6 µM (inactive); in [11], 57.7 µM (inactive); in assay [12], > 100 µM (inactive). In addition, the GI50 in assay [13] and in [15] was > 100 µM (inactive) throughout.

`CC(=O)CCCCCCCCCCCC[C@@H]1CC[C@H](C)[C@H](O)N1`: the GI50 in assay [1] is > 100 µM (inactive); in assay [2], > 100 µM (inactive); in assay [3], > 100 µM (inactive); in assay [4], 43.4 µM (inactive); in [5] it was 40.3 µM (inactive); in assay [6] it was > 100 µM (inactive). Further, the GI50 is > 100 µM (inactive) in [7]; > 100 µM (inactive) in assay [8]; > 100 µM (inactive) in assay [9]; > 100 µM (inactive) in assay [10]; 38.3 µM (inactive) in [11]; > 100 µM (inactive) in assay [12]. Moreover, the GI50 in [13] and in [14] was > 100 µM (inactive) each time.

Turning to `CCCCNC1=C(C(=O)OCC)/C(=N/NC(=O)c2ccccc2O)CO1`, the GI50 in assay [1] is 27.1 µM (inactive); in [2], 18.4 µM (inactive); in assay [3], > 100 µM (inactive); in [4] it was 24.8 µM (inactive); in assay [5], 25.5 µM (inactive); in assay [6] it was 20.1 µM (inactive). Moreover, the GI50 in [7] was 79.3 µM (inactive); in [8], 34.4 µM (inactive); in assay [9], > 100 µM (inactive); in assay [10], 40.1 µM (inactive); in assay [12], 32.1 µM (inactive); in assay [13], 18.8 µM (inactive). Further, the figures for the GI50 in assay [14] and in assay [15] were 13.2 µM (inactive) and 11.8 µM (inactive), respectively.

Regarding `CCC1(O)CC(c2ccccc2)N(C)C(c2ccccc2)C1` (stereo not drawn), the GI50 in [1] is > 100 µM (inactive); in assay [2], > 100 µM (inactive); in [3], > 100 µM (inactive); in assay [4] it was 69.2 µM (inactive); in [5], > 100 µM (inactive); in assay [6] it was > 100 µM (inactive). In addition, the GI50 in [7] is > 100 µM (inactive); in [8], > 100 µM (inactive); in [9], > 100 µM (inactive); in [10], > 100 µM (inactive); in assay [11], 97.9 µM (inactive); in assay [12], > 100 µM (inactive). For the same compound, the figures for the GI50 in [13], in assay [14] and in assay [15] were > 100 µM (inactive), 94.2 µM (inactive) and > 100 µM (inactive), respectively.

Regarding `O=C(O)c1c[nH]cc1C(=O)O`, the GI50 in [1], in [3], in assay [4], in assay [5], in [6] and in assay [7] was > 100 µM (inactive) in each case. Also, the GI50 in assay [9], in [10], in [11], in assay [12], in [13] and in [14] was > 100 µM (inactive) in each case. Also, in assay [15], the GI50 is > 100 µM (inactive).

On to `Cc1ccc(C(=O)N2CCCCC2)cc1/N=N/N(C)C`, for which the GI50 in [1], in [2], in assay [3], in [4], in assay [5] and in assay [7] was > 100 µM (inactive) each time. Besides, the GI50 in [8], in assay [9], in assay [10], in assay [11], in assay [12] and in [13] was > 100 µM (inactive) in each case. The GI50 in assay [14] and in assay [15] was > 100 µM (inactive) throughout.

`Cc1cc2c(=O)n(-c3ccc(F)cc3)c(C)nc2c(C(=O)O)c1C`: the GI50 in [1], in [2], in assay [3], in assay [4], in [5] and in [6] was > 100 µM (inactive) throughout. For the same compound, the GI50 in [7], in assay [8], in assay [10], in assay [11], in assay [12] and in assay [13] was > 100 µM (inactive) each time. Moreover, the GI50 in assay [14] and in assay [15] was > 100 µM (inactive) in each case.
